Results published in patent publication US11117900B2 (Vertex Pharmaceuticals Incorporated, priority 2012, dated 2021).
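Note: compound concentration needed to lower the IC50 of Cisplatin alone by a set fold.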

These compounds were tested on HCT116 colorectal cancer cells (assay: Cisplatin sensitization assay (96 h MTS cell viability)). Conditions: Cisplatin sensitization value.
Format: cell-based
How it was run: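 HCT116 cells were dosed simultaneously with compound and cisplatin as a full matrix of 2-fold serial dilutions from 10 μM top final concentration. Incubation was 96 h at 37° C., 5% CO2, followed by 1 h with MTS reagent for the viability read-out. Sensitization values were binned into +++, ++ and + categories.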
In the case of `Nc1nn2cc(F)cnc2c1C(=O)Nc1cncc(F)c1N1CCC(S(=O)(=O)N2CCC2)CC1` [I-N-169, 2-amino-N-(4-(4-(azetidin-1-ylsulfonyl)piperidin-1-yl)-5-fluoropyridin-3-yl)-6-fluoropyrazolo[1,5-a]pyrimidine-3-carboxamide], the “Cisplatin Sensitization Assay” value is reported as “+++ (Compounds with a Cisplatin sensitization value of <0.02 μM are marked with “+++.”)”.
`N#CCc1cnc2c(C(=O)Nc3cnccc3OC3COC3)c(N)nn2c1` [I-O-38, 2-amino-6-(cyanomethyl)-N-(4-(oxetan-3-yloxy)pyridin-3-yl)pyrazolo[1,5-a]pyrimidine-3-carboxamide] was tested, and the “Cisplatin Sensitization Assay” value was “+++ (Compounds with a Cisplatin sensitization value of <0.02 μM are marked with “+++.”)”.
In the case of `C[C@@H]1CN(C(=O)C2CCN(c3c(F)cncc3NC(=O)c3c(N)nn4cc(F)cnc34)CC2)CCN1` [I-G-45, (R)-2-amino-6-fluoro-N-(5-fluoro-4-(4-(3-methylpiperazine-1-carbonyl)piperidin-1-yl)pyridin-3-yl)pyrazolo[1,5-a]pyrimidine-3-carboxamide], the “Cisplatin Sensitization Assay” value is reported as “+++ (Compounds with a Cisplatin sensitization value of <0.02 μM are marked with “+++.”)”.
In the case of `CN1CCN(C(=O)C2CCN(c3c(F)cncc3NC(=O)c3c(N)nn4cc(Cl)cnc34)CC2)CC1` [I-G-5, 2-amino-6-chloro-N-(5-fluoro-4-(4-(4-methylpiperazine-1-carbonyl)piperidin-1-yl)pyridin-3-yl)pyrazolo[1,5-a]pyrimidine-3-carboxamide], the “Cisplatin Sensitization Assay” value is reported as “+++ (Compounds with a Cisplatin sensitization value of <0.02 μM are marked with “+++.”)”.
`Nc1nn2cc(F)cnc2c1C(=O)Nc1cnccc1OC1CCN(C2COC2)CC1` [I-O-11, 2-amino-6-fluoro-N-(4-((1-(oxetan-3-yl)piperidin-4-yl)oxy)pyridin-3-yl)pyrazolo[1,5-a]pyrimidine-3-carboxamide] was tested, and the “Cisplatin Sensitization Assay” value was “+++ (Compounds with a Cisplatin sensitization value of <0.02 μM are marked with “+++.”)”.
`CS(=O)(=O)C1CN(C(=O)C2CCN(c3c(F)cncc3NC(=O)c3c(N)nn4cc(F)cnc34)CC2)C1` [I-G-86, 2-amino-6-fluoro-N-(5-fluoro-4-(4-(3-(methylsulfonyl)azetidine-1-carbonyl)piperidin-1-yl)pyridin-3-yl)pyrazolo[1,5-a]pyrimidine-3-carboxamide] was tested, and the “Cisplatin Sensitization Assay” value was “+++ (Compounds with a Cisplatin sensitization value of <0.02 μM are marked with “+++.”)”.
`Nc1nn2cc(F)cnc2c1C(=O)Nc1cnccc1Oc1cccnc1` [I-O-7, 2-amino-6-fluoro-N-(4-(pyridin-3-yloxy)pyridin-3-yl)pyrazolo[1,5-a]pyrimidine-3-carboxamide] was tested, and the “Cisplatin Sensitization Assay” value was “++ (Compounds with a Cisplatin sensitization value >0.02 μM but <0.2 μM are marked with “++.”)”.
With `CN(C)C(=O)C1CCCN(c2ccncc2NC(=O)c2c(N)nn3cc(F)cnc23)C1` (stereo not shown) [I-N-290, 2-amino-N-(4-(3-(dimethylcarbamoyl)piperidin-1-yl)pyridin-3-yl)-6-fluoropyrazolo[1,5-a]pyrimidine-3-carboxamide] the “Cisplatin Sensitization Assay” value was “++ (Compounds with a Cisplatin sensitization value >0.02 μM but <0.2 μM are marked with “++.”)”.
`Nc1nn2cc(F)cnc2c1C(=O)Nc1cnccc1-n1cnc(C(F)(F)F)c1` [I-N-27, 2-amino-6-fluoro-N-(4-(4-(trifluoromethyl)-1H-imidazol-1-yl)pyridin-3-yl)pyrazolo[1,5-a]pyrimidine-3-carboxamide] was tested, and the “Cisplatin Sensitization Assay” value was “++ (Compounds with a Cisplatin sensitization value >0.02 μM but <0.2 μM are marked with “++.”)”.
`Cn1ncnc1-c1ccncc1NC(=O)c1c(N)nn2cc(F)cnc12` [I-C-65, 2-amino-6-fluoro-N-(4-(1-methyl-1H-1,2,4-triazol-5-yl)pyridin-3-yl)pyrazolo[1,5-a]pyrimidine-3-carboxamide] was tested, and the “Cisplatin Sensitization Assay” value was “++ (Compounds with a Cisplatin sensitization value >0.02 μM but <0.2 μM are marked with “++.”)”.
`Cn1ccnc1-c1ccncc1NC(=O)c1c(N)nn2cc(F)cnc12` [I-C-55, 2-amino-6-fluoro-N-(4-(1-methyl-1H-imidazol-2-yl)pyridin-3-yl)pyrazolo[1,5-a]pyrimidine-3-carboxamide] was tested, and the “Cisplatin Sensitization Assay” value was “+ (Compounds with a Cisplatin sensitization value >0.2 μM but <5 μM are marked with “+.”)”.
In the case of `Nc1nn2cc(F)cnc2c1C(=O)Nc1cncc(F)c1N1CCC(C(=O)NCCN2CCC2)CC1` [I-G-42, 2-amino-N-(4-(4-((2-(azetidin-1-yl)ethyl)carbamoyl)piperidin-1-yl)-5-fluoropyridin-3-yl)-6-fluoropyrazolo[1,5-a]pyrimidine-3-carboxamide], the “Cisplatin Sensitization Assay” value is reported as “+++ (Compounds with a Cisplatin sensitization value of <0.02 μM are marked with “+++.”)”.
In the case of `CN(C)CCCN(C)C(=O)C1CCN(c2c(F)cncc2NC(=O)c2c(N)nn3cc(F)cnc23)CC1` [I-G-16, 2-amino-N-(4-(4-((3-(dimethylamino)propyl)(methyl)carbamoyl)piperidin-1-yl)-5-fluoropyridin-3-yl)-6-fluoropyrazolo[1,5-a]pyrimidine-3-carboxamide], the “Cisplatin Sensitization Assay” value is reported as “+++ (Compounds with a Cisplatin sensitization value of <0.02 μM are marked with “+++.”)”.
`CN(C)CC1CCN(c2ccncc2NC(=O)c2c(N)nn3cc(F)cnc23)CC1` [I-N-267, 2-amino-N-(4-(4-((dimethylamino)methyl)piperidin-1-yl)pyridin-3-yl)-6-fluoropyrazolo[1,5-a]pyrimidine-3-carboxamide] was tested, and the “Cisplatin Sensitization Assay” value was “+++ (Compounds with a Cisplatin sensitization value of <0.02 μM are marked with “+++.”)”.
In the case of `CN(C)Cc1ccc(Oc2ccncc2NC(=O)c2c(N)nn3cc(F)cnc23)cn1` [I-O-3, 2-amino-N-(4-((6-((dimethylamino)methyl)pyridin-3-yl)oxy)pyridin-3-yl)-6-fluoropyrazolo[1,5-a]pyrimidine-3-carboxamide], the “Cisplatin Sensitization Assay” value is reported as “++ (Compounds with a Cisplatin sensitization value >0.02 μM but <0.2 μM are marked with “++.”)”.
With `CN1CCOC[C@@H]1c1ccc(-c2ccncc2NC(=O)c2c(N)nn3cc(F)cnc23)cc1` [I-C-66, (S)-2-amino-6-fluoro-N-(4-(4-(4-methylmorpholin-3-yl)phenyl)pyridin-3-yl)pyrazolo[1,5-a]pyrimidine-3-carboxamide] the “Cisplatin Sensitization Assay” value was “+++ (Compounds with a Cisplatin sensitization value of <0.02 μM are marked with “+++.”)”.
With `Cc1nc(O[C@@H]2CCN(C)C2)ccc1-c1ccncc1NC(=O)c1c(N)nn2cc(F)cnc12` [I-C-41, (R)-2-amino-6-fluoro-N-(2-methyl-6-((1-methylpyrrolidin-3-yl)oxy)-[3,4′-bipyridin]-3′-yl)pyrazolo[1,5-a]pyrimidine-3-carboxamide] the “Cisplatin Sensitization Assay” value was “+++ (Compounds with a Cisplatin sensitization value of <0.02 μM are marked with “+++.”)”.
For `Cc1nc(C(=O)N2CCN(C)CC2)ccc1-c1ccncc1NC(=O)c1c(N)nn2cc(F)cnc12` [I-C-39, 2-amino-6-fluoro-N-(2-methyl-6-(4-methylpiperazine-1-carbonyl)-[3,4′-bipyridin]-3′-yl)pyrazolo[1,5-a]pyrimidine-3-carboxamide], the “Cisplatin Sensitization Assay” value was “+++ (Compounds with a Cisplatin sensitization value of <0.02 μM are marked with “+++.”)”.
For `CN1CCN(c2cc(Cl)ncc2NC(=O)c2c(N)nn3cc(Cl)cnc23)CC1` [I-N-52, 2-amino-6-chloro-N-(6-chloro-4-(4-methylpiperazin-1-yl)pyridin-3-yl)pyrazolo[1,5-a]pyrimidine-3-carboxamide], the “Cisplatin Sensitization Assay” value was “++ (Compounds with a Cisplatin sensitization value >0.02 μM but <0.2 μM are marked with “++.”)”.
